The values below come from patent US11993574B2, “Pyrazole and imidazole compounds for inhibition of IL-17 and RORgamma” (REATA PHARMACEUTICALS, INC., priority 2018, dated 2024).

What all share (type): cell-based
In one test the test system is IL-17A. Briefly: IL-17 release from differentiated primary human T-cells (IL-17A HTRF assay). Particulars: primary human CD4+ T cells differentiated into Th17 cells, 45-hour incubation, IL-17A in supernatant; read-out: hIL17 IC50. A digest of the protocol:
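Primary human CD4+ T cells (~2×10^5/well) given compound (2–500 or 4–1000 nM, 0.1% DMSO), CD3/CD28-activated and Th17-differentiated (TGF-β, IL-6, IL-23, IL-1β) for 45 h at 37° C. Supernatant IL-17A by HTRF against standard curve, normalized to vehicle; IC50 by variable-slope regression, with parallel CyQuant viability.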

In test [1] the target is T1, Human RAR-related Orphan Receptor Gamma (RORγ) (Homo sapiens, UniProt P51449).
T1 sequence (P51449 269-508 limits assumed): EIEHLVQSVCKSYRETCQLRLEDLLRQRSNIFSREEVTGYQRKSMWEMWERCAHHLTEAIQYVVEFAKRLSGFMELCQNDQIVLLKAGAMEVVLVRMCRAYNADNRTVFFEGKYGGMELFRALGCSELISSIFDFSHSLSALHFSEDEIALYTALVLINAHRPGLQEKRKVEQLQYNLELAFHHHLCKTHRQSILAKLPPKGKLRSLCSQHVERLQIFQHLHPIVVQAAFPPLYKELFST
Nature of the test: RORγ assay (GAL4-RORγ hybrid luciferase reporter, Indigo Biosciences). The settings on record: inverse-agonist activity, GAL4-RORγ reporter cells, 23 hours. The procedure, abridged:
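[…]engineered human reporter cell line expressing GAL4-DBD/RORγ-LBD hybrid with GAL4-UAS luciferase; constitutive activity measured as inverse agonism. Cells treated with compound (7.8-2000 nM) for 23 h at 37 °C; luminescence normalized to DMSO, IC50 by variable-slope fit, with parallel viability readout to flag non-specific inhibition.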

Test [2] relates to Nrf2 transcription factor. Briefly: AREc32 luciferase reporter assay. The settings on record: Homo sapiens; AREc32 cells, 19 hours; concentration required to increase GST ARE luciferase reporter activity by 2-fold; read-out: NRF2 ARE 2-Fold (EC2×). The procedure, abridged:
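AREc32 cells (MCF-7 with firefly luciferase under eight rat GSTA2 ARE copies) treated 19 h with compound (0.4-200 nM or 3.9-2000 nM) in triplicate. Luminescence normalized to DMSO as fold-induction, capped at 50-fold. EC2× = concentration giving 2-fold reporter increase, interpolated from variable-slope fit.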

SMILES strings stand for the structures.

Turning to `CC(C)c1ccc(-c2nc3c(n2-c2cnn(C)c2)CC[C@@H]2[C@@H](C)C(=O)C(C#N)=C[C@@]32C)cc1` [T156], the results for the IC50 (with IL-17A; in test [1]) were 128 nM and 117 nM, respectively. In addition, in test [2], the EC (2-fold) is 1.16 µM.
Taken in the same sequence, the figures for `Cc1noc(C)c1-c1cccc(-c2nc3c(n2-c2cccc(F)c2)CC[C@@H]2[C@@H](C)C(=O)C(C#N)=C[C@@]32C)c1` [T150] were 104 nM, 135 nM and 0.488 µM.
Taken in the same sequence, the figures for `C[C@H]1C(=O)C(C#N)=C[C@@]2(C)c3c(c(-c4ccccc4)nn3-c3ccc(-c4ccncc4)cc3)CC[C@H]12` [T39] were 31 nM, 25 nM and 0.139 µM.
In the case of `C[C@H]1C(=O)C(C#N)=C[C@@]2(C)c3nn(-c4ccc(Cl)c(Cl)c4)c(-c4ccccc4)c3CC[C@H]12` [T117], the concentration for half-maximal inhibition (IC50) in the test with IL-17A turned out to be 107 nM; in test [1] it was 114 nM. Further, in test [2], the EC (2-fold) came to 0.834 µM.
As to `C[C@H]1C(=O)C(C#N)=C[C@@]2(C)c3c(c(-c4ccccc4)nn3-c3cccc(-c4cccnc4)c3)CC[C@H]12` [T34], the IC50 (in the test with IL-17A; in test [1]) was 87 nM each time. In addition, the EC (2-fold) in test [2] was 0.245 µM.
As for `C[C@H]1C(=O)C(C#N)=C[C@@]2(C)c3c(c(-c4ccccc4F)nn3-c3nc4ccccc4s3)CC[C@H]12` [T92], the IC50 in the test with IL-17A was found to be 28 nM; in test [1] it was 340 nM. In addition, in test [2], the EC (2-fold) stood at 0.491 µM.
Take `CC(C)c1ccc(-c2nc3c(n2C)CC[C@@H]2[C@@H](C)C(=O)C(C#N)=C[C@@]32C)cc1` [T163]: the IC50 with IL-17A was 255 nM; in test [1], 152 nM. The EC (2-fold) in test [2] stood at 1.13 µM.
Taken in the same sequence, the figures for `CC(C)c1ccc(-c2nc3c(n2CCOCc2ccccc2)CC[C@@H]2[C@@H](C)C(=O)C(C#N)=C[C@@]32C)cc1` [T165] were 211 nM, 471 nM and above 2 µM.
Taken in the same sequence, the figures for `C[C@H]1C(=O)C(C#N)=C[C@@]2(C)c3nc(Cc4ccccc4)n(-c4cccc(F)c4)c3CC[C@H]12` [T140] were 288 nM, 113 nM and 1.27 µM.
For `C[C@H]1C(=O)C(C#N)=C[C@@]2(C)c3c(c(-c4ccc(CF)cc4)nn3-c3ccc(-c4ccccc4)cc3)CC[C@H]12` [T74], the figures for the half-inhibitory concentration (IC50) (with IL-17A; in test [1]) were 16 nM and 111 nM, respectively. Further, the EC (2-fold) in test [2] was 0.182 µM.
As for `CC(C)c1ccc(-c2nc3c(n2Cc2ccc(Cl)cc2)CC[C@@H]2[C@@H](C)C(=O)C(C#N)=C[C@@]32C)cc1` [T169], the IC50 in the test with IL-17A worked out at 33 nM; in test [1] it was 371 nM. The EC (2-fold) in test [2] stood at 1.01 µM.
Turning to `C[C@H]1C(=O)C(C#N)=C[C@@]2(C)c3nc(-c4cccc(Cl)c4)n(-c4cnn(C)c4)c3CC[C@H]12` [T157], the figures for the IC50 (in the test on IL-17A; in test [1]) were 322 nM and 103 nM, respectively. Besides, the EC (2-fold) in test [2] was determined as 1.28 µM.
In the case of `C[C@H]1C(=O)C(C#N)=C[C@@]2(C)c3nc(-c4cnc5ccccc5c4)n(-c4cccc(F)c4)c3CC[C@H]12` [T137], the IC50 in the test on IL-17A was found to be 240 nM; in test [1] it was 93 nM. In addition, in test [2], the EC (2-fold) was 0.618 µM.
`C[C@H]1C(=O)C(C#N)=C[C@@]2(C)c3c(c(-c4ccncn4)nn3-c3ccc(-c4ccccc4)cn3)CC[C@H]12` [T59]: the results for the IC50 (in the test on IL-17A; in test [1]) were 99 nM and 113 nM, respectively. The EC (2-fold) in test [2] was 0.449 µM.
As for `C[C@H]1C(=O)C(C#N)=C[C@@]2(C)c3nc(-c4cccc(-c5ccncc5)c4)n(-c4cnn(C)c4)c3CC[C@H]12` [T159], the IC50 came out at 273 nM in the test with IL-17A and 201 nM in test [1]. Further, the EC (2-fold) in test [2] came out at 1.08 µM.
`C[C@H]1C(=O)C(C#N)=C[C@@]2(C)c3c(c(-c4ccccc4F)nn3-c3ccc(N4CCOCC4)cc3)CC[C@H]12` [T85]: the IC50 turned out to be 46 nM with IL-17A and 50 nM in test [1]. The EC (2-fold) in test [2] amounted to 0.079 µM.
The matching figures for `C[C@H]1C(=O)C(C#N)=C[C@@]2(C)c3c(c(-c4ccccc4)nn3-c3ccc(-c4cccc(F)c4)cc3)CC[C@H]12` [T40]: 23 nM, 80 nM and 0.238 µM.
Turning to `C[C@H]1C(=O)C(C#N)=C[C@@]2(C)c3c(c(-c4ccccc4)nn3-c3ccc(C(F)(F)F)cc3)CC[C@H]12` [T6], the values for the half-maximal inhibitory concentration (IC50) (in the test with IL-17A; in test [1]) were 35 nM and 91 nM, respectively. Also, in test [2], the EC (2-fold) worked out at 0.242 µM.
Take `C[C@H]1C(=O)C(C#N)=C[C@@]2(C)c3nc(-c4cccc(N5CCOCC5)c4)n(-c4cccc(F)c4)c3CC[C@H]12` [T143]: the values for the IC50 (in the test with IL-17A; in test [1]) were 132 nM and 95 nM, respectively. The EC (2-fold) in test [2] came to 0.643 µM.
Regarding `CC(C)c1ccc(-c2nc3c(n2C2CC2)CC[C@@H]2[C@@H](C)C(=O)C(C#N)=C[C@@]32C)cc1` [T161], the IC50 with IL-17A is 113 nM; in test [1], 150 nM. In addition, the EC (2-fold) in test [2] was 1.02 µM.
Taken in the same sequence, the figures for `C[C@H]1C(=O)C(C#N)=C[C@@]2(C)c3c(c(-c4ccncn4)nn3-c3nc4ccccc4s3)CC[C@H]12` [T98] were 78 nM, 289 nM and 0.275 µM.
In the case of `Cc1ccc(-c2nn(-c3ccc(-c4ccccc4)cc3)c3c2CC[C@@H]2[C@@H](C)C(=O)C(C#N)=C[C@@]32C)cc1` [T69], the IC50 with IL-17A worked out at 12 nM; in test [1], 142 nM. Further, the EC (2-fold) in test [2] came to 0.38 µM.
For the molecule `CC(C)c1ccc(-c2nc3c(n2Cc2ccccc2)CC[C@@H]2[C@@H](C)C(=O)C(C#N)=C[C@@]32C)cc1` [T166], the figures for the IC50 (with IL-17A; in test [1]) were 63 nM and 228 nM, respectively. Also, the EC (2-fold) in test [2] was determined as 1.68 µM.
As to `Cc1cc(-c2ccc(-n3nc(-c4ccccc4F)c4c3[C@]3(C)C=C(C#N)C(=O)[C@H](C)[C@H]3CC4)cc2)cnn1` [T83], the IC50 was 20 nM in the test with IL-17A and 33 nM in test [1]. Further, the EC (2-fold) in test [2] worked out at 0.139 µM.
Turning to `C[C@H]1C(=O)C(C#N)=C[C@@]2(C)c3nc(-c4cccc(-c5cncnc5)c4)n(-c4cccc(F)c4)c3CC[C@H]12` [T147], the IC50 is 185 nM in the test with IL-17A and 108 nM in test [1]. The EC (2-fold) in test [2] was 0.515 µM.
Take `C[C@H]1C(=O)C(C#N)=C[C@@]2(C)c3nn(-c4cccc(-c5ccccc5)c4)c(-c4ccncn4)c3CC[C@H]12` [T121]: the IC50 in the test with IL-17A was 85 nM; in test [1], 242 nM. In addition, the EC (2-fold) in test [2] is 1.07 µM.
Turning to `C[C@H]1C(=O)C(C#N)=C[C@@]2(C)c3c(c(-c4ccccn4)nn3-c3ccc(-c4ccccc4)cc3)CC[C@H]12` [T81], the figures for the IC50 (in the test with IL-17A; in test [1]) were 30 nM and 67 nM, respectively. In test [2], the EC (2-fold) was 0.243 µM.
For `C[C@H]1C(=O)C(C#N)=C[C@@]2(C)c3c(c(-c4ccncc4)nn3-c3ccc(-c4cncc(F)c4)cc3)CC[C@H]12` [T101], the results for the 50% inhibitory concentration (IC50) (in the test on IL-17A; in test [1]) were 51 nM and 54 nM, respectively. The EC (2-fold) in test [2] stood at 0.353 µM.
Regarding `C[C@H]1C(=O)C(C#N)=C[C@@]2(C)c3c(c(-c4ccncn4)nn3-c3ccc(-c4cccnc4)cc3F)CC[C@H]12` [T53], the results for the IC50 (in the test on IL-17A; in test [1]) were 88 nM and 57 nM, respectively. Moreover, in test [2], the EC (2-fold) turned out to be 0.489 µM.
Taken in the same sequence, the figures for `C[C@H]1C(=O)C(C#N)=C[C@@]2(C)c3c(c(-c4ccccc4)nn3-c3cccc4ccccc34)CC[C@H]12` [T23] were 89 nM, 118 nM and 0.19 µM.
